Laboratory results reported in patent US20030003440A1, “Novel CCR5 epitope and antibodies against it” (priority 2001, published 2003).

Columns and labels:
[1] = tested on: anti-CCR5 Abs; assay: Epitope mapping of anti-CCR5 Abs on peptide/beads, assayed in the Mip1β binding inhibition assay; set-up: species or system human; conditions: for Binding of anti-CCR5 Abs to peptide: Abs from ESN sera bound to peptide/beads, eluted, tested in Mip1β binding inhibition assay, FIG. 1
Method: Coupling of CCR5 peptides to tosyl-activated Dynabeads M280 (Dynal, Oslo, Norway) was obtained following standard procedures. Briefly, 3×10^7 beads were incubated with 9 μg of CCR5 peptides in 50 mM borate buffer pH 9,5 (16 h at 37° C.). After 4 washes in PBS, peptide/beads were ready for use.
Binding of anti-CCR5 specific Igs to peptide/beads was obtained by incubating 9 μg Ig's to 9 μg peptide/beads for 1 h at 4° C. Ig's were eluted in 0.5 M acetic acid, dialyzed against RPMI medium, then tested in Mip1β binding assays and/or in HIV neutralization assays. To establish if the region recognized by anti-CCR5 antibodies corresponds to a conformational epitope, the specific peptide/beads were incubated with 10 mM of βME, and subsequently with 300 mM of N-Ethyl Maleimide (final concentration: 30 mM) for 60 min prior to antibody binding.
The assay was performed as described (Trkola, A. et al., 1996, Nature 384:184). Briefly, 10^6 purified CD4^+ cells in 200 μl of RPMI (Gibco-Life Technologies, Milan, Italy)(containing 0.05 M NaN3, 1% BSA and 25 mM HEPES) were incubated with appropriate dilutions of affinity-purified anti-CCR5 Abs (Example 1); after 45 min of incubation ^125I-Mip1β (Dupont-NEN, Mechelem, Belgium) was added (final concentration 0.1 nM, 0.2 μCi), and the cells were further incubated for 2 h on ice. Unbound radioactivity was separated by centrifugation on a two-step gradient (Grassi, F. et al., 1991, J. Exp. Med. 174:53) in 0.3 ml tubes (Nunc, Roskilde, Denmark) as follows: the lower layer consisted of fetal calf serum (FCS) containing 10% sucrose; the upper layer consisted of 80% silicone (Sigma-Aldrich) and 20% mineral oil (Sigma-Aldrich). The bound radioactivity in the cell pellets was measured in a gamma counter. Serum samples were diluted 1:10 (5 replicas for each sample). A specificity control consisting of a 100-fold excess of unlabeled Mip1β was included in all experiments. The binding of the ^125I-Mip1β to activated CD4^+ cells ranged between 1000 and 6000 CPM. The cut-off value was set at 12% (3 SD above the mean value of the 45 USN serum samples).

[2] = target: T1, peptide 3 from CCR5 (Homo sapiens, UniProt P51681); assay: Immunization of mice with KLH-conjugated peptide; binding of mice sera to peptide 3 by ELISA; type: in vivo; conditions: BALB/c mice, i.p. every 15 days, three immunizations, KLH conjugate 50 μg/dose; FIG. 3
T1 construct: made in house; host or cells: chemical solid-phase synthesis
Method: BALB/c mice were immunized i.p. every 15 days with peptide 3 or with an unrelated control peptide (VQGEESNDK); both peptides had previously been conjugated to KLH (50 μg/dose). Serum was monitored for the presence of antibodies against the immunogens. After three immunizations the mice were sacrificed and sera were tested in direct binding on pep 3.
Binding of mice sera to peptide 3 was obtained by ELISA. Microwells plates were coated with Beads/pep 3 (10^7beads). The plates were satured for 1 h with PBS and 3% BSA. Different dilutions of mice antisera ( 1/10, 1/50, 1/250 and 1/1000) were added and incubated for 2 h at r.t. […] The enzimatic reaction was developed and read at 492 nm.

Row | Binding of anti-CCR5 Abs to peptide [1] | Binding on pep 3 of sera of immunized mice (ELISA) [2] | Binding of anti-CCR5 Abs to peptide after reduction and alkylation ([1]; addition of 2-ME and N-ethyl maleimide) | Substance
1 | no binding |  |  | CSSHFPYSQYQFWKNFQTLKc [compound 4]
2 | no binding |  |  | FQEFFGLNNCSSSNR [compound 5, peptide of the extramembrane region of CCR5]
3 |  | no binding |  | VQGEESNDK [control peptide, unrelated control peptide conjugated to KLH, reference compound]
4 | no binding |  |  | YYTSEPCQKINVKQIAARLLP [compound 2, peptide of the extramembrane region of CCR5]
5 | no binding |  |  | cMDYQVSSPIYDINYYTSEPC [compound 1]
6 | Specific Ab binding | specific binding | abolished | cYAAAQWDFGNTMCQ (N-terminal Cys added; UniProt P51681 89-102, looked up, fragment) [peptide 3, second external domain of CCR5 (first cysteine loop, aa 89-102) with Cys added at the N-terminus]
